Data: patent US20260234159A1, “SMALL MOLECULE TREATMENT OF FATTY LIVER DISEASE AND HCC” (SCANDIEDGE THERAPEUTICS AB, priority 2023, published 2026)

Experiment: In vivo toxicological study in rats: plasma chemistry
Set-up: species or system rats of the Wistar strain
Protocol: Forty-two male and forty-two female rats of the Wistar strain were allocated to the study. Three groups of three males and three females were given doses of 30, 100 and 300 mg/kg of target compounds (Table 8). The vehicle was 1.5 w/w % HPMC, 1.5 w/w % PS80 in 10 mM PBS, pH 7 and dose volume were 5 mL/kg. The animals were acclimatised at least 14 day prior to the study and exposed to a 12 hours light, 12 hours dark light cycle. The formulations were administered via oral gavage. Administration occurred once daily in the morning for seven consecutive days. Blood for scheduled haematology and plasma chemistry were taken at necropsy. For plasma chemistry, 0.6 ml blood (lithium heparin) per animal and for haematology, 0.5 ml blood (K2EDTA) per animal. The blood and plasma were analysed using Exigo analyzer and Vetscan equipment. Blood samples were kept in room temperature […] after collection and mixing. The blood samples were analysed as whole blood within 60 min of collection. The VetScan analyser was calibrated with calibration samples of known plasma levels of each parameter before start of analysis, occasionally during the analysis period of study samples and after completed analyses (Table 10).

[1] = female, 30 mg/kg oral daily 7 d
[2] = female, 100 mg/kg oral daily 7 d
[3] = female, 300 mg/kg oral daily 7 d

`COc1ccccc1NC(=O)N1CCc2c(sc(NC(=O)c3cccc4ccccc34)c2C#N)C1` [PKL-A152] gave an ALB [1] of 56 g/L, an ALP [1] of 84 U/L and an ALT [1] of 23 U/L. It also gave an AMY [1] of 548 U/L, a BUN [1] of 4.9 mmol/L and a CA [1] of 2.90 mmol/L. For the same compound, the CRE [1] was 44 µmol/L, the GLOB [1] was 7 g/L and the GLU [1] was 8.0 mmol/L. The “K+” value [1] was 2.9 mmol/L, the “NA+” value [1] was 148 mmol/L and the PHOS [1] was 2.28 mmol/L. It also gave a TBIL [1] of 4.0 µmol/L, a TP [1] of 64 g/L and an ALB [2] of 58 g/L. It also gave an ALP [2] of 162 U/L, an ALT [2] of 20 U/L and an AMY [2] of 573 U/L. For the same compound, the BUN [2] was 6.0 mmol/L, the CA [2] was 2.87 mmol/L and the CRE [2] was 48 µmol/L. The GLOB [2] was 8 g/L, the GLU [2] was 7.8 mmol/L and the “K+” value [2] was 4.5 mmol/L. The “NA+” value [2] was 139 mmol/L, the PHOS [2] was 2.38 mmol/L and the TBIL [2] was 4.7 µmol/L. For the same compound, the TP [2] was 66 g/L, the ALB [3] was 56 g/L and the ALP [3] was 134 U/L. It also gave an ALT [3] of 21 U/L, an AMY [3] of 539 U/L and a BUN [3] of 5.2 mmol/L. It also gave a CA [3] of 2.92 mmol/L, a CRE [3] of 51 µmol/L and a GLOB [3] of 8 g/L. For the same compound, the GLU [3] was 7.7 mmol/L, the “K+” value [3] was 4.8 mmol/L and the “NA+” value [3] was 140 mmol/L. For the same compound, the PHOS [3] was 2.39 mmol/L, the TBIL [3] was 4.7 µmol/L and the TP [3] was 64 g/L. For the same compound, the ALB (male, 30 mg/kg oral daily 7 d) was 50 g/L, the ALP (male, 30 mg/kg oral daily 7 d) was 272 U/L and the ALT (male, 30 mg/kg oral daily 7 d) was 30 U/L. The AMY (male, 30 mg/kg oral daily 7 d) was 837 U/L, the BUN (male, 30 mg/kg oral daily 7 d) was 5.7 mmol/L and the CA (male, 30 mg/kg oral daily 7 d) was 2.99 mmol/L. For the same compound, the CRE (male, 30 mg/kg oral daily 7 d) was 42 µmol/L, the GLOB (male, 30 mg/kg oral daily 7 d) was 13 g/L and the GLU (male, 30 mg/kg oral daily 7 d) was 8.0 mmol/L. For the same compound, the “K+” value (male, 30 mg/kg oral daily 7 d) was 4.6 mmol/L, the “NA+” value (male, 30 mg/kg oral daily 7 d) was 140 mmol/L and the PHOS (male, 30 mg/kg oral daily 7 d) was 2.11 mmol/L. The TBIL (male, 30 mg/kg oral daily 7 d) was 4.0 µmol/L, the TP (male, 30 mg/kg oral daily 7 d) was 63 g/L and the ALB (male, 100 mg/kg oral daily 7 d) was 51 g/L. It also gave an ALP (male, 100 mg/kg oral daily 7 d) of 267 U/L, an ALT (male, 100 mg/kg oral daily 7 d) of 25 U/L and an AMY (male, 100 mg/kg oral daily 7 d) of 838 U/L. For the same compound, the BUN (male, 100 mg/kg oral daily 7 d) was 5.7 mmol/L, the CA (male, 100 mg/kg oral daily 7 d) was 2.98 mmol/L and the CRE (male, 100 mg/kg oral daily 7 d) was 42 µmol/L. For the same compound, the GLOB (male, 100 mg/kg oral daily 7 d) was 12 g/L, the GLU (male, 100 mg/kg oral daily 7 d) was 8.2 mmol/L and the “K+” value (male, 100 mg/kg oral daily 7 d) was 4.7 mmol/L. For the same compound, the “NA+” value (male, 100 mg/kg oral daily 7 d) was 141 mmol/L, the PHOS (male, 100 mg/kg oral daily 7 d) was 2.57 mmol/L and the TBIL (male, 100 mg/kg oral daily 7 d) was 5.0 µmol/L. For the same compound, the TP (male, 100 mg/kg oral daily 7 d) was 63 g/L, the ALB (male, 300 mg/kg oral daily 7 d) was 49 g/L and the ALP (male, 300 mg/kg oral daily 7 d) was 244 U/L. It also gave an ALT (male, 300 mg/kg oral daily 7 d) of 28 U/L, an AMY (male, 300 mg/kg oral daily 7 d) of 854 U/L and a BUN (male, 300 mg/kg oral daily 7 d) of 5.5 mmol/L. For the same compound, the CA (male, 300 mg/kg oral daily 7 d) was 3.04 mmol/L, the CRE (male, 300 mg/kg oral daily 7 d) was 51 µmol/L and the GLOB (male, 300 mg/kg oral daily 7 d) was 14 g/L. For the same compound, the GLU (male, 300 mg/kg oral daily 7 d) was 8.6 mmol/L, the “K+” value (male, 300 mg/kg oral daily 7 d) was 4.5 mmol/L and the “NA+” value (male, 300 mg/kg oral daily 7 d) was 143 mmol/L. It also gave a PHOS (male, 300 mg/kg oral daily 7 d) of 2.47 mmol/L, a TBIL (male, 300 mg/kg oral daily 7 d) of 4.7 µmol/L and a TP (male, 300 mg/kg oral daily 7 d) of 63 g/L.
